{"source": "patent US20240335539A1", "about": "“MODULATION OF BCL-2 TO ENHANCE CHIMERIC ANTIGEN RECEPTOR CANCER IMMUNOTHERAPY EFFICACY” (The Trustees of the University of Pennsylvania, priority 2021, published 2024)", "key": {"[1]": {"details": "patient treated with venetoclax (Jones et al. 2016); cited from earlier work"}, "CART19": {"test_system": "CART19", "assay": "In vitro venetoclax CART cell toxicity assay", "assay_type": "cell-based, human", "details": "for IC50: Homo sapiens", "method": "CART cells were combined with target cancer cells at an E:T ratio of 0.25:1, and co-cultures were evaluated for absolute count of T cells and cancer cells by flow cytometry using CountBright absolute counting beads (ThermoFisher) every three days. Cultures were maintained at a concentration of 1×10^6 total cells/mL. To monitor their differentiation status, CART cells were harvested on day 0, 9, and 18. Next, CART cells were stained with anti-CCR7 and anti-CD45RA antibodies for flow cytometric analysis. CART cells were re-stimulated by PMA/Ionomycin on day 18 after initial stimulation in order to evaluate the anti-tumor activity of long-survived CART cells.\nTo investigate this hypothesis, the expansion and persistence of CART19 cells in the peripheral blood of NSG mice treated with CART19 plus venetoclax or CART19 alone was analyzed using flow cytometry. […] To test whether prolonged exposure to venetoclax leads to CART cell toxicity, an in vitro venetoclax toxicity assay was performed using CART cells manufactured from 8 different T cell donors. […] Of note, the level of toxicity to CART cells varied among the different T cell donors, likely due to different apoptotic priming statuses at baseline. […] In order to discern whether the reduced survival was due to increased apoptosis or reduction of proliferation, the caspase 3/7 activity in CART19 was assessed in the presence or absence of venetoclax. […] Overall, these studies indicate that the higher doses of venetoclax required to suppress neoplasms with venetoclax resistance can cause apoptosis in CART19 cells. However, the BCL-2 pathway is a critical node for cancer resistance to CART immunotherapy and venetoclax can be toxic to CART cells. Thus, a different approach to overcome the limitation of targeting BCL-2 combined with CART immunotherapy was needed.\nCorrect expression of the transgenes in target cells was confirmed by intracellular staining for CAR19 and BCL-2 using flow cytometry (FIG. 10B). […] Additionally, venetoclax CART cell toxicity assays were performed to evaluate whether the mutant BCL-2 could provide resistance to venetoclax."}, "MINO": {"test_system": "MINO", "assay": "MINO xenograft model", "details": "venetoclax 50 mg/Kg", "description": "For the MINO model, CART cells (5×10^4) were infused 14 days after luciferase+MINO cells were implanted (i.v. injection). […] Either vehicle or venetoclax (50 mg/kg/daily) was administrated for 5 weeks via oral gavage. […] All data represent mean±SD.\nCART cells (5×10^4) were infused 14 days after luciferase+MINO cell i.v. injection. […] All data represent mean±SD. One-way ANOVA with posthoc Tukey tests was performed for all comparisons.\nSix- to 10-week-old NOD SCID γ chain −/− (NSG) mice were obtained from the Stem Cell & Xenograft Core at the University of Pennsylvania and maintained in pathogen-free conditions. […] For the systemic tumor model, 1×10^6 of either NALM6 or MINO were administrated to NSG mice by tail vein injection."}, "[2]": {"test_system": "mantle cell lymphoma (MCL)", "assay": "Clinical outcomes of MCL patients after brexucabtagene autoleucel by venetoclax bridging therapy", "assay_type": "in vivo, human", "method": "FIGS. 13A-13H illustrate the finding that chromosomal alterations of BCL-2 in lymphoma patients associate with poor prognosis of CART therapy. FIG. 13A is a schematic of the strategy used herein to investigate whether genetic alteration of BCL-2 affects CART's anti-tumor clinical response. Pre-CART biopsies from patients with LCL were analyzed by fluorescence in situ hybridization (FISH) to search for BCL-2 chromosomal aberration. […] FIG. 13F is a schematic of the strategy used herein to investigate the impact of venetoclax bridging therapy on CART19's clinical response in MCL patients. […]\nFor the large B cell lymphoma cohort, clinical data were collected from patients diagnosed with DLBCL not otherwise specified (NOS), high-grade B cell lymphoma (HGBCL) NOS, HGBCL with MYC and BCL-2 and/or BCL-6 rearrangements, and transformed follicular lymphoma treated at the University of Pennsylvania using two commercial CART19 products (tisagenlecleucel or axicabtagene ciloleucel, UPCC44420) or enrolled in the CTL019 clinical trial NCT02030834. Only patients evaluated for chromosomal alterations involving the BCL-2 locus by interim FISH analysis were included in the current study. […] Disease response was determined according to Lugano classification. […]"}, "NALM6": {"test_system": "NALM6", "assay": "NALM6 xenograft model", "assay_type": "in vivo", "details": "CART19 with or without venetoclax 100 mg/kg daily, oral gavage for five weeks", "method": "Either venetoclax (100 mg/kg) or vehicle were administered to the mice via oral gavage daily. To monitor the survival of CART in vivo, mouse blood ([…]) was collected from submandibular vein of mouse on day 15 after CART infusion and measured the absolute number of human CD3+ T cells in mouse blood using flow cytometry. Tumor volume was monitored by measuring luminescen intensity in mouse by IVIS system. […] One-way ANOVA with post-hoc Tukey test was performed. […] All data represent mean±SD. *P<0.05. ns: not significant. UTD: untransduced T cell. CART19: anti-CD19 CAR T cell. CART19-BCL2(WT): BCL-2(WT) overexpressing anti-CD19 CAR T cell.\nAll data represent mean±SD.\nTo investigate this hypothesis, the expansion and persistence of CART19 cells in the peripheral blood of NSG mice treated with CART19 plus venetoclax or CART19 alone was analyzed using flow cytometry. […] To test whether prolonged exposure to venetoclax leads to CART cell toxicity, an in vitro venetoclax toxicity assay was performed using CART cells manufactured from 8 different T cell donors. […] In order to discern whether the reduced survival was due to increased apoptosis or reduction of proliferation, the caspase 3/7 activity in CART19 was assessed in the presence or absence of venetoclax. […]"}}, "note": "Read-outs that look alike come from different tables or passages of the source.", "data": [{"smiles": "CC1(C)CCC(CN2CCN(c3ccc(C(=O)NS(=O)(=O)c4ccc(NCC5CCOCC5)c([N+](=O)[O-])c4)c(Oc4cnc5[nH]ccc5c4)c3)CC2)=C(c2ccc(Cl)cc2)C1", "note": "[venetoclax]", "values": [{"measurement": "physiological concentration in a patient", "setting": "[1]", "value": "around 2.3 M"}, {"measurement": "Survival of CART19 cells", "setting": "CART19; 5 days of co-culture, CART cells from 8 donors", "value": "significant reduction in the survival of CART19 cells"}, {"measurement": "IC50", "setting": "CART19; healthy donor-derived CAR T cell, read-out: average value of the IC50 concentration", "value": 600, "unit": "nM"}, {"measurement": "IC50", "setting": "CART19; venetoclax on CART19, long-term in vitro assay, n=3 donors, read-out: average IC50 value (CART cell survival)", "value": 131, "unit": "nM"}, {"measurement": "Caspase 3/7 activation in CART cells", "setting": "CART19; venetoclax present vs absent", "value": "significant caspase 3/7 activation in CART cells"}, {"measurement": "Toxicity to CART cells in vivo", "setting": "MINO", "value": "toxic to CART19"}, {"measurement": "complete response rate after brex-cel", "setting": "[2]; bridging therapy including venetoclax (7/8)", "value": 87.5, "unit": "%"}, {"measurement": "patients in complete response at one year", "setting": "[2]; venetoclax bridging therapy before brex-cel", "value": 100, "unit": "%"}, {"measurement": "Mice showing tumor relapse", "setting": "NALM6", "value": 40, "unit": "%"}]}]}
